For test [1], the system named is third peptide segment, in which one amino acid had been replaced. Description: aligned peptide array membrane with one amino acid replaced in the third peptide segment, autoradiography. It is filed as binding. As to conditions: formula (IV): G (glycine) in the third peptide segment replaced by E (glutamate). Here is the method:
(§1) The aligned peptide array membrane was reacted with a phorbol ester labeled with tritium (^3H) and then brought into contact with a photographic film. Thus, the reaction spot was identified by autoradiography.
In the third peptide segment detected in Example 2, one amino acid was replaced as shown in the following formula (IV). Excepting this modification, detection was carried out in the same manner as in Example 2. [formula]

For test [2], the system named is regulatory region of protein kinase C (PKC). Briefly: aligned peptide array membrane reacted with tritium-labeled phorbol ester, autoradiography. Type of test: binding. As to conditions: peptide segments of formula (III); phorbol ester labeled with tritium (3H). Here is the method:
First of all, an amino acid sequence corresponding to a portion of the regulatory region of protein kinase C (PKC) was divided as shown in the following formula (III), and the corresponding peptide segments were synthesized. Then, an aligned peptide array membrane was prepared in the same manner as given in Example 1. [formula]
as §1

Data on one compound can be found in patent publication EP0818467B1, “Aligned peptide array and a rational and rapid method for the detection of a binding or interaction site of a protein by using the same” (NEC CORPORATION, priority 1996, dated 1998).

Take `CCCCCCCCCCCCCC(=O)O[C@@H]1[C@@H](C)[C@@]2(O)[C@@H](C=C(CO)C[C@]3(O)C(=O)C(C)=C[C@@H]23)[C@@H]2C(C)(C)[C@]12OC(C)=O` [phorbol ester]: the “exposure to radiation at the position of the peptide segment” value is recorded as “no exposure to radiation was observed at the position of the third peptide segment” in test [1] and “exposure to radiation was observed at the position of the peptide segment corresponding to the third sequence segment of formula (III)” in test [2].
